How the values were obtained:
Format in all cases: in vivo
black-grass [1] = experiment: Test Example 3: weedkilling efficacy through soil treatment; H: black-grass; settings: treatment dosage 315 g/ha
Summary of the method: (§1)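 Crop and weed responses were judged three weeks after a uniform surface spray of the water-diluted emulsion at the given g/ha rate. Seeds sat beneath about 1.5 cm of sterilized diluvial soil, and boxes stood in a greenhouse at 25 to 30° C.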

chickweed [2] = experiment: Test Example 4: weedkilling efficacy by foliar treatment; N: chickweed; settings: treatment dosage 315 g/ha
Summary of the method: (§2)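 Seeds are spot-sown into sterilized diluvial soil and covered with about 1.5 cm of soil. After 14 days' greenhouse growth at 25 to 30° C, plants are sprayed on stems and leaves with diluted emulsion at the stated g/ha rate, then scored at 3 weeks.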

wheat [3] = experiment: Test Example 4: foliar treatment, effect on crop; e: wheat; settings: treatment dosage 315 g/ha
Summary of the method: as §2

redroot pigweed [4] = experiment: Test Example 4: weedkilling efficacy by foliar treatment; L: redroot pigweed; settings: treatment dosage 315 g/ha
Summary of the method: as §2

fig-leafed goosefoot [5] = experiment: Test Example 3: weedkilling efficacy through soil treatment; M: fig-leafed goosefoot; settings: treatment dosage 315 g/ha
Summary of the method: as §1

black-grass [6] = experiment: Test Example 4: weedkilling efficacy by foliar treatment; H: black-grass; settings: treatment dosage 315 g/ha
Summary of the method: as §2

barnyard grass [7] = experiment: Test Example 1: weedkilling efficacy, preemergent weed treatment in the submerged state; A: barnyard grass; settings: treatment dosage 252 g/ha
Summary of the method: (§3)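 Pre-emergence application onto floodwater (4 cm, alluvial soil) on the day of sowing, dose expressed as g/ha from diluted emulsion formulation. Weeds sown with 2.5-leaf transplanted rice as crop; plants held at 25–30 °C in greenhouse and scored against assessment criteria after 3 weeks.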

birds-eye speedwell = experiment: Test Example 3: weedkilling efficacy through soil treatment; p: birds-eye speedwell; settings: treatment dosage 315 g/ha
Summary of the method: as §1

Italian ryegrass [8] = experiment: Test Example 3: weedkilling efficacy through soil treatment; I: Italian ryegrass; settings: treatment dosage 315 g/ha
Summary of the method: as §1

Indian mallow [9] = experiment: Test Example 3: weedkilling efficacy through soil treatment; K: Indian mallow; settings: treatment dosage 315 g/ha
Summary of the method: as §1

barnyard grass [10] = experiment: Test Example 2: weedkilling efficacy, growth period weed treatment in the submerged state; A: barnyard grass; settings: treatment dosage 252 g/ha
Summary of the method: (§4)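 Weeds treated at the 1-2 leaf stage by application of diluted emulsion onto floodwater (4 cm depth, alluvial soil) at specified g/ha. Grown in greenhouse at 25 to 30° C; herbicidal effect rated three weeks after treatment.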

wild oat [11] = experiment: Test Example 4: weedkilling efficacy by foliar treatment; G: wild oat; settings: treatment dosage 315 g/ha
Summary of the method: as §2

oval-leafed pondweed [12] = experiment: Test Example 2: weedkilling efficacy, growth period weed treatment in the submerged state; C: oval-leafed pondweed; settings: treatment dosage 252 g/ha
Summary of the method: as §4

chickweed [13] = experiment: Test Example 3: weedkilling efficacy through soil treatment; N: chickweed; settings: treatment dosage 315 g/ha
Summary of the method: as §1

bulrush [14] = experiment: Test Example 2: weedkilling efficacy, growth period weed treatment in the submerged state; B: bulrush; settings: treatment dosage 252 g/ha
Summary of the method: as §4

soybean [15] = experiment: Test Example 4: foliar treatment, effect on crop; d: soybean; settings: treatment dosage 315 g/ha
Summary of the method: as §2

directly sown rice [16] = experiment: Test Example 3: soil treatment, effect on crop; b: directly sown rice; settings: treatment dosage 315 g/ha
Summary of the method: as §1

beet [17] = experiment: Test Example 3: soil treatment, effect on crop; f: beet; settings: treatment dosage 315 g/ha
Summary of the method: as §1

transplanted rice = experiment: Test Example 1: preemergent weed treatment in the submerged state, effect on crop; a: transplanted rice; settings: treatment dosage 252 g/ha
Summary of the method: as §3

beet [18] = experiment: Test Example 4: foliar treatment, effect on crop; f: beet; settings: treatment dosage 315 g/ha
Summary of the method: as §2

wild oat [19] = experiment: Test Example 3: weedkilling efficacy through soil treatment; G: wild oat; settings: treatment dosage 315 g/ha
Summary of the method: as §1

fig-leafed goosefoot [20] = experiment: Test Example 4: weedkilling efficacy by foliar treatment; M: fig-leafed goosefoot; settings: treatment dosage 315 g/ha
Summary of the method: as §2

Italian ryegrass [21] = experiment: Test Example 4: weedkilling efficacy by foliar treatment; I: Italian ryegrass; settings: treatment dosage 315 g/ha
Summary of the method: as §2

green foxtail [22] = experiment: Test Example 3: weedkilling efficacy through soil treatment; E: green foxtail; settings: treatment dosage 315 g/ha
Summary of the method: as §1

catchweed [23] = experiment: Test Example 3: weedkilling efficacy through soil treatment; O: catchweed; settings: treatment dosage 315 g/ha
Summary of the method: as §1

redroot pigweed [24] = experiment: Test Example 3: weedkilling efficacy through soil treatment; L: redroot pigweed; settings: treatment dosage 315 g/ha
Summary of the method: as §1

soybean [25] = experiment: Test Example 3: soil treatment, effect on crop; d: soybean; settings: treatment dosage 315 g/ha
Summary of the method: as §1

catchweed [26] = experiment: Test Example 4: weedkilling efficacy by foliar treatment; O: catchweed; settings: treatment dosage 315 g/ha
Summary of the method: as §2

directly sown rice [27] = experiment: Test Example 4: foliar treatment, effect on crop; b: directly sown rice; settings: treatment dosage 315 g/ha
Summary of the method: as §2

Indian mallow [28] = experiment: Test Example 4: weedkilling efficacy by foliar treatment; K: Indian mallow; settings: treatment dosage 315 g/ha
Summary of the method: as §2

corn [29] = experiment: Test Example 4: foliar treatment, effect on crop; c: corn; settings: treatment dosage 315 g/ha
Summary of the method: as §2

wheat [30] = experiment: Test Example 3: soil treatment, effect on crop; e: wheat; settings: treatment dosage 315 g/ha
Summary of the method: as §1

bulrush [31] = experiment: Test Example 1: weedkilling efficacy, preemergent weed treatment in the submerged state; B: bulrush; settings: treatment dosage 252 g/ha
Summary of the method: as §3

green foxtail [32] = experiment: Test Example 4: weedkilling efficacy by foliar treatment; E: green foxtail; settings: treatment dosage 315 g/ha
Summary of the method: as §2

crabgrass [33] = experiment: Test Example 3: weedkilling efficacy through soil treatment; D: crabgrass; settings: treatment dosage 315 g/ha
Summary of the method: as §1

corn [34] = experiment: Test Example 3: soil treatment, effect on crop; c: corn; settings: treatment dosage 315 g/ha
Summary of the method: as §1

crabgrass [35] = experiment: Test Example 4: weedkilling efficacy by foliar treatment; D: crabgrass; settings: treatment dosage 315 g/ha
Summary of the method: as §2

oval-leafed pondweed [36] = experiment: Test Example 1: weedkilling efficacy, preemergent weed treatment in the submerged state; C: oval-leafed pondweed; settings: treatment dosage 252 g/ha
Summary of the method: as §3

**Q.** Which “H (black-grass) weedkilling efficacy grade” value (black-grass [1]) does the source give for `CC1=C(c2ccccc2)C(=O)N(C(C)(C)C(=O)Nc2cc(C(F)(F)F)ccn2)CO1` [B-2-57] here?
**A.** Its value is 5 (weed kill ratio 90% or more, (practically complete withering)).

**Q.** And the “N (chickweed) weedkilling efficacy grade” value (chickweed [2])?
**A.** The value was 3 (weed kill ratio 40% or more, less than 70%).

**Q.** And the “e (wheat) effect on crop grade” value (wheat [3])?
**A.** The value was 1 (weed kill ratio 5% or more, less than 20%).

**Q.** What about the “L (redroot pigweed) weedkilling efficacy grade” value (redroot pigweed [4]) of the same compound?
**A.** Its value is 5 (weed kill ratio 90% or more, (practically complete withering)).

**Q.** What about the “M (fig-leafed goosefoot) weedkilling efficacy grade” value (fig-leafed goosefoot [5]) of the same compound?
**A.** The value was 4 (weed kill ratio 70% or more, less than 90%).

**Q.** And the “H (black-grass) weedkilling efficacy grade” value (black-grass [6])?
**A.** Its value is 5 (weed kill ratio 90% or more, (practically complete withering)).

**Q.** And the “A (barnyard grass) weedkilling efficacy grade” value (barnyard grass [7])?
**A.** Its value is 5 (weed kill ratio 90% or more, (practically complete withering)).

**Q.** What about the “P (birds-eye speedwell) weedkilling efficacy grade” value (birds-eye speedwell) of the same compound?
**A.** The value was 5 (weed kill ratio 90% or more, (practically complete withering)).

**Q.** What about the “I (Italian ryegrass) weedkilling efficacy grade” value (Italian ryegrass [8]) of the same compound?
**A.** Its value is 5 (weed kill ratio 90% or more, (practically complete withering)).

**Q.** What about the “K (Indian mallow) weedkilling efficacy grade” value (Indian mallow [9]) of the same compound?
**A.** The value was 5 (weed kill ratio 90% or more, (practically complete withering)).

**Q.** What about the “A (barnyard grass) weedkilling efficacy grade” value (barnyard grass [10]) of the same compound?
**A.** The value was 5 (weed kill ratio 90% or more, (practically complete withering)).

**Q.** And the “G (wild oat) weedkilling efficacy grade” value (wild oat [11])?
**A.** The value was 5 (weed kill ratio 90% or more, (practically complete withering)).

**Q.** And the “C (oval-leafed pondweed) weedkilling efficacy grade” value (oval-leafed pondweed [12])?
**A.** The value was 5 (weed kill ratio 90% or more, (practically complete withering)).

**Q.** And the “N (chickweed) weedkilling efficacy grade” value (chickweed [13])?
**A.** The value was 4 (weed kill ratio 70% or more, less than 90%).

**Q.** What about the “B (bulrush) weedkilling efficacy grade” value (bulrush [14]) of the same compound?
**A.** Its value is 5 (weed kill ratio 90% or more, (practically complete withering)).

**Q.** What about the “d (soybean) effect on crop grade” value (soybean [15]) of the same compound?
**A.** Its value is 4 (weed kill ratio 70% or more, less than 90%).

**Q.** What about the “b (directly sown rice) effect on crop grade” value (directly sown rice [16]) of the same compound?
**A.** The value was 5 (weed kill ratio 90% or more, (practically complete withering)).

**Q.** What about the “f (beet) effect on crop grade” value (beet [17]) of the same compound?
**A.** The value was 3 (weed kill ratio 40% or more, less than 70%).

**Q.** And the “a (transplanted rice) effect on crop grade” value (transplanted rice)?
**A.** The value was 4 (weed kill ratio 70% or more, less than 90%).

**Q.** And the “f (beet) effect on crop grade” value (beet [18])?
**A.** The value was 3 (weed kill ratio 40% or more, less than 70%).

**Q.** What about the “G (wild oat) weedkilling efficacy grade” value (wild oat [19]) of the same compound?
**A.** Its value is 5 (weed kill ratio 90% or more, (practically complete withering)).

**Q.** What about the “M (fig-leafed goosefoot) weedkilling efficacy grade” value (fig-leafed goosefoot [20]) of the same compound?
**A.** Its value is 3 (weed kill ratio 40% or more, less than 70%).

**Q.** And the “I (Italian ryegrass) weedkilling efficacy grade” value (Italian ryegrass [21])?
**A.** Its value is 5 (weed kill ratio 90% or more, (practically complete withering)).

**Q.** And the “E (green foxtail) weedkilling efficacy grade” value (green foxtail [22])?
**A.** Its value is 5 (weed kill ratio 90% or more, (practically complete withering)).

**Q.** And the “O (catchweed) weedkilling efficacy grade” value (catchweed [23])?
**A.** The value was 5 (weed kill ratio 90% or more, (practically complete withering)).

**Q.** And the “L (redroot pigweed) weedkilling efficacy grade” value (redroot pigweed [24])?
**A.** Its value is 5 (weed kill ratio 90% or more, (practically complete withering)).

**Q.** And the “d (soybean) effect on crop grade” value (soybean [25])?
**A.** Its value is 4 (weed kill ratio 70% or more, less than 90%).

**Q.** And the “O (catchweed) weedkilling efficacy grade” value (catchweed [26])?
**A.** Its value is 5 (weed kill ratio 90% or more, (practically complete withering)).

**Q.** And the “b (directly sown rice) effect on crop grade” value (directly sown rice [27])?
**A.** The value was 5 (weed kill ratio 90% or more, (practically complete withering)).

**Q.** What about the “K (Indian mallow) weedkilling efficacy grade” value (Indian mallow [28]) of the same compound?
**A.** The value was 5 (weed kill ratio 90% or more, (practically complete withering)).

**Q.** And the “c (corn) effect on crop grade” value (corn [29])?
**A.** Its value is 5 (weed kill ratio 90% or more, (practically complete withering)).

**Q.** What about the “e (wheat) effect on crop grade” value (wheat [30]) of the same compound?
**A.** The value was 0 (weed kill ratio 5% or less (practically no effect)).

**Q.** What about the “B (bulrush) weedkilling efficacy grade” value (bulrush [31]) of the same compound?
**A.** Its value is 5 (weed kill ratio 90% or more, (practically complete withering)).

**Q.** And the “E (green foxtail) weedkilling efficacy grade” value (green foxtail [32])?
**A.** The value was 5 (weed kill ratio 90% or more, (practically complete withering)).

**Q.** And the “D (crabgrass) weedkilling efficacy grade” value (crabgrass [33])?
**A.** The value was 5 (weed kill ratio 90% or more, (practically complete withering)).

**Q.** And the “c (corn) effect on crop grade” value (corn [34])?
**A.** The value was 4 (weed kill ratio 70% or more, less than 90%).

**Q.** And the “D (crabgrass) weedkilling efficacy grade” value (crabgrass [35])?
**A.** Its value is 5 (weed kill ratio 90% or more, (practically complete withering)).

**Q.** What about the “C (oval-leafed pondweed) weedkilling efficacy grade” value (oval-leafed pondweed [36]) of the same compound?
**A.** Its value is 5 (weed kill ratio 90% or more, (practically complete withering)).
